Measurements from PMC11245557, “Differential potassium channel inhibitory activities of a novel thermostable degradation peptide BmKcug1a-P1 from scorpion medicinal material and its N-terminal truncated/restored peptides” (Scientific Reports, 2024).
Bridge positions count the residues as written; N and C are the ends. Peptide text beside a SMILES is read from it.

How the values were obtained:
Format in all cases: cell-based
hKv1.3 channel = target: T1, hKv1.3 channel (Homo sapiens, UniProt P22001); test: Whole-cell patch clamp, hKv1.3 currents in transfected HEK293T cells; details: mean ± SE; for IC50: dose-response fitted with modified Hill equation; for IC50 / inhibition of hKv1.3 channel current: SEM
T1 construct: expressed in transfected cells; host or cells: HEK293T
From the text: (§1) The cDNA fragments encoding potassium channels were provided by others as previously described. The cDNA encoding hKv1.1 channel and hKv1.3 channel were cloned into the pCDNA3.1(+) vector. The cDNA encoding hKv1.2 channel, hKv1.6 channel and hKv3.2 channel were inserted into the pIRES2-EGFP vector.
(§2) HEK293T cell lines were obtained from the BeNa Culture Collection (Xinyang, China) and maintained in DMEM (Dulbecco’s Modified Eagle Medium, Gibco, Pittsburgh, PA, USA) supplemented with 10% fetal bovine serum (FBS, Gibco) and 1% penicillin/streptomycin (Gibco). Cells were passaged using Pancreatin (Gibco). For transfection experiments, HEK293T cells were seeded in appropriate culture vessels and allowed to reach 70–80% confluency. The expression vectors of pEGFP-N1 and potassium channels were co-transfected into HEK293T cells using ExFect Transfection Reagent (Vazyme, Nanjing, China) following its manufacturer’s instructions. Briefly, plasmid DNA and transfection reagent were mixed in serum-free medium, incubated for 15–30 min at room temperature to allow complex formation, and then added to the cells. After 24–48 h transfection, the single positive cells were selected based on the presence of GFP fluorescence to assess the potassium channel inhibiting activities of the peptides using whole cell patch clamp technique.
(§3) An EPC-10 patch-clamp amplifier which was controlled by PatchMaster software (HEKA Elektronik, Lambrecht, Germany) was applied to measure and record the potassium currents for whole-cell. The MPS-2 multichannel microperfusion system (INBIO Inc., Wuhan, China) was applied to exchange the external bath solution with different concentration of peptides. According to the protocol as previously described, the internal patch pipette solution and bath solution were prepared. The peptides were dissolved in Bath solution with 0.01% BSA (Gibco, Pittsburgh, PA, USA) to different concentrations. The potassium currents of hKv1.1, hKv1.2, hKv1.3, hKv1.6 and hKv3.2 channel were generated following the respective protocols as previously described. The results of the electrophysiological experiment are presented as the mean ± SE, and over three cells for each peptide in any concentration were examined ([…]).
(§4) For electrophysiological experiments, we used the ClampFit (Molecular Devices, Sunnyvale, CA, USA) and SigmaPlot software (IBM SPSS, Chicago, IL, USA) to analyze the recorded data. The dose–response relationship between channel current and peptide inhibition is fitted by the modified Hill equation: Ipeptide/Icontrol = 1/{1 + [peptide]/IC50}, in which Ipeptide represent the potassium current under the inhibition of peptide, Icontrol represent the peak current, IC50 is the half-maximum inhibition concentration, and [peptide] represents the concentration of the peptide. The half inhibitory concentration (IC50) was the parameter to be fitted.

hKv3.2 channel = target: T2, hKv3.2 channel (Homo sapiens, UniProt Q96PR1); test: Whole-cell patch clamp, hKv3.2 currents in transfected HEK293T cells; details: 1 μM peptide, mean ± SE, n ≥ 3, SEM
T2 construct: expressed in transfected cells; host or cells: HEK293T
T2 sequence (Q96PR1 1-638): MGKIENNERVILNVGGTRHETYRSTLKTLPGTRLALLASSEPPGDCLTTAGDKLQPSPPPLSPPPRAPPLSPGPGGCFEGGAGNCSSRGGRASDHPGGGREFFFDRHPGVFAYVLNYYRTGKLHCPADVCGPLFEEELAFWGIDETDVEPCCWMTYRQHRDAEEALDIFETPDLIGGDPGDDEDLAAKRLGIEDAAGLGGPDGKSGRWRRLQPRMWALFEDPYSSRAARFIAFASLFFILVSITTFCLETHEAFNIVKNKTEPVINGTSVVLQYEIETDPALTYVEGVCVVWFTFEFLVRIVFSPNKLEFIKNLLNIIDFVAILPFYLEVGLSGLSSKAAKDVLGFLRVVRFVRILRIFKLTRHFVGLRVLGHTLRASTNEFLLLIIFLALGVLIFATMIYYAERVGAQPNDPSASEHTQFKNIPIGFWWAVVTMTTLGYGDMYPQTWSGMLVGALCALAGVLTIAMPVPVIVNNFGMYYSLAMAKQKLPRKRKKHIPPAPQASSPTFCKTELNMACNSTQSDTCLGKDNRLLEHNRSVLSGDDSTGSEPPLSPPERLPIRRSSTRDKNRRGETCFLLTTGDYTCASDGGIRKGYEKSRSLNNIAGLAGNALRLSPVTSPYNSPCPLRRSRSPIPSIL
From the text: as §1
as §2, with “Briefly, plasmid DNA and transfection reagent were mixed in serum-free medium, incubated for 15–30 min at room temperature to allow complex formation, and then added to the cells.” left out, “technique. […]” for “technique.”
(§5) For electrophysiological experiments, we used the ClampFit (Molecular Devices, Sunnyvale, CA, USA) and SigmaPlot software (IBM SPSS, Chicago, IL, USA) to analyze the recorded data. […]

hKv1.1 channel = target: T3, hKv1.1 channel (Homo sapiens, UniProt Q09470); test: Whole-cell patch clamp, hKv1.1 currents in transfected HEK293T cells; details: 1 μM peptide, mean ± SE, n ≥ 3, SEM
T3 construct: expressed in transfected cells; host or cells: HEK293T
From the text: as §1
as §2, with “Briefly, plasmid DNA and transfection reagent were mixed in serum-free medium, incubated for 15–30 min at room temperature to allow complex formation, and then added to the cells.” left out, “technique. […]” for “technique.”
as §5

hKv1.2 channel = target: T4, hKv1.2 channel (Homo sapiens, UniProt P16389); test: Whole-cell patch clamp, hKv1.2 currents in transfected HEK293T cells; details: mean ± SE
T4 construct: expressed in transfected cells; host or cells: HEK293T
From the text: as §1, §2, §3, §4

hKv1.6 channel = target: T5, hKv1.6 channel (Homo sapiens, UniProt P17658); test: Whole-cell patch clamp, hKv1.6 currents in transfected HEK293T cells; details: 1 μM peptide, mean ± SE, n ≥ 3, SEM
T5 construct: expressed in transfected cells; host or cells: HEK293T
From the text: as §1
as §2, with “Briefly, plasmid DNA and transfection reagent were mixed in serum-free medium, incubated for 15–30 min at room temperature to allow complex formation, and then added to the cells.” left out, “technique. […]” for “technique.”
as §5

[1] = 1 μM peptide, HEK293T, n ≥ 3, SEM

T4 sequence (P16389 whole entry): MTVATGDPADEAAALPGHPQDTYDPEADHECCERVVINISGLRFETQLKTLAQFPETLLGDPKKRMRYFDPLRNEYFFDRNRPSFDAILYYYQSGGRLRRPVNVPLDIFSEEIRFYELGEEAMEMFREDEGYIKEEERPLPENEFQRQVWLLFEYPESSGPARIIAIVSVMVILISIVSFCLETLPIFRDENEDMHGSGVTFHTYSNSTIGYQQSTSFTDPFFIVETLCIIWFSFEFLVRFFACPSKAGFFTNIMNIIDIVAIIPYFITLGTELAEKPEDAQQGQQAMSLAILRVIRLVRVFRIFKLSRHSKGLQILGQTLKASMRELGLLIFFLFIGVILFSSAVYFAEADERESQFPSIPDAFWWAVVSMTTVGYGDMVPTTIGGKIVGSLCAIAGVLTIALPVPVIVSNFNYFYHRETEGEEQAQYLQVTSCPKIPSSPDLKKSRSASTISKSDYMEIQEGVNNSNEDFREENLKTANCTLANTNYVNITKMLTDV
T1 sequence (P22001 whole entry): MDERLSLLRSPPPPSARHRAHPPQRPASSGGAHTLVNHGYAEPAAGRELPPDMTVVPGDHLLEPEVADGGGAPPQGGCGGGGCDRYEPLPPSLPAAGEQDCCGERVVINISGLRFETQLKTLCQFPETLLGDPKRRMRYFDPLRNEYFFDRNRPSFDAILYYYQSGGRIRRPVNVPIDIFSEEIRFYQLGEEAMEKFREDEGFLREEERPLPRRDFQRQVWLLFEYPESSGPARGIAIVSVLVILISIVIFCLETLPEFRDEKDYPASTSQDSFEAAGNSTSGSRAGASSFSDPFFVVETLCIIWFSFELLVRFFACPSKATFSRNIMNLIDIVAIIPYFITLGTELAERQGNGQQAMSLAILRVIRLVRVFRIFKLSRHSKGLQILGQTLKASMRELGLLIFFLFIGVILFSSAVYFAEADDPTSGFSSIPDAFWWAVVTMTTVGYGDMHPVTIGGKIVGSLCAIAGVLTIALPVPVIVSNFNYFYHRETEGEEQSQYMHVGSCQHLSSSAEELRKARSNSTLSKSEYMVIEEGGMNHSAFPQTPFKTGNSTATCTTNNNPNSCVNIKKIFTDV
T3 sequence (Q09470 whole entry): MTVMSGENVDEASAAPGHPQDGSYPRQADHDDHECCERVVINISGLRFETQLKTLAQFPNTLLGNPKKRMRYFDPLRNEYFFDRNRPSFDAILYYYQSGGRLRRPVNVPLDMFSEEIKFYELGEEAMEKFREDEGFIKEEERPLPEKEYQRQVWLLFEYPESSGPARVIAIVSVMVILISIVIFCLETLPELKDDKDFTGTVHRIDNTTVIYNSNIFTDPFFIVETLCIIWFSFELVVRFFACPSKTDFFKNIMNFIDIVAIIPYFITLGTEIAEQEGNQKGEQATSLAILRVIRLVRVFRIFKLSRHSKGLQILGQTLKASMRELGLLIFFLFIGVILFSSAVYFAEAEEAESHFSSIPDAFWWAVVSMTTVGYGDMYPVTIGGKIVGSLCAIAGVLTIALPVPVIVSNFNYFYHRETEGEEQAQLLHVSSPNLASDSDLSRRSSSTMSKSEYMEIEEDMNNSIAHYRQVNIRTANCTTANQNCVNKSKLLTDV
T5 sequence (P17658 whole entry): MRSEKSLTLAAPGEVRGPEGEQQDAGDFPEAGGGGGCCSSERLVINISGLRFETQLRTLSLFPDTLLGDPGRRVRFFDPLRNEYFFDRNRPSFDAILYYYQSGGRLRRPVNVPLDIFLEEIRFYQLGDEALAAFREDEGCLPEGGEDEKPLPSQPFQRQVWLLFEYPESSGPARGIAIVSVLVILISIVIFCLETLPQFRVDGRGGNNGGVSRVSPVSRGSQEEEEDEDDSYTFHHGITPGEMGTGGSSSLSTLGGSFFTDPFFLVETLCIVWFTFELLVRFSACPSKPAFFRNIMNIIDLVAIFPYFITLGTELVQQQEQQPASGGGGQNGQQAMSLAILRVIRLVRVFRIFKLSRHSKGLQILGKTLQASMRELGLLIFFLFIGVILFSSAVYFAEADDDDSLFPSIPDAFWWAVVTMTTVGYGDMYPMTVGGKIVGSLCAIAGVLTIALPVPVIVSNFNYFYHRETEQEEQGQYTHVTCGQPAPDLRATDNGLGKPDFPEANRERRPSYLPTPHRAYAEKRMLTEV

CSCC[C@@H]1NC(=O)[C@@H]2CSSC[C@H](NC(=O)[C@H](CO)NC(=O)[C@@H](NC(=O)[C@@H](N)CC(N)=O)C(C)C)C(=O)N[C@@H](CO)C(=O)N[C@@H](C)C(=O)N[C@@H](CO)C(=O)N[C@@H](CO)C(=O)N[C@@H](CCC(N)=O)C(=O)N[C@H]3CSSC[C@H](NC(=O)[C@H](CCCCN)NC(=O)[C@H](CO)NC(=O)[C@H](CC(N)=O)NC1=O)C(=O)N[C@@H](CCCNC(=N)N)C(=O)N[C@H](C(=O)N[C@@H](Cc1ccc(O)cc1)C(=O)N[C@@H](CO)C(=O)O)CSSC[C@H](NC(=O)[C@H](C(C)C)NC(=O)[C@@H]1CCCN1C(=O)[C@H](Cc1c[nH]c4ccccc14)NC3=O)C(=O)N[C@@H](CCC(=O)O)C(=O)N[C@@H](CCCCN)C(=O)N[C@@H](CC(C)C)C(=O)N[C@@H](Cc1ccccc1)C(=O)NCC(=O)N[C@@H]([C@@H](C)O)C(=O)N[C@@H](Cc1ccc(O)cc1)C(=O)N[C@@H](CCCNC(=N)N)C(=O)NCC(=O)N[C@@H](CCCCN)C(=O)N2 [BmKcug1a-P1-D2] (H-NVSCSASSQCWPVCEKLFGTYRGKCMNSKCRCYS-OH; disulfide 4-25, 10-30, 14-32)
IC50 (hKv1.3 channel; HEK293T): 1660 ± 180 nM

CSCC[C@@H]1NC(=O)[C@@H]2CSSC[C@H](NC(=O)[C@@H](N)CO)C(=O)N[C@@H](CO)C(=O)N[C@@H](C)C(=O)N[C@@H](CO)C(=O)N[C@@H](CO)C(=O)N[C@@H](CCC(N)=O)C(=O)N[C@H]3CSSC[C@H](NC(=O)[C@H](CCCCN)NC(=O)[C@H](CO)NC(=O)[C@H](CC(N)=O)NC1=O)C(=O)N[C@@H](CCCNC(=N)N)C(=O)N[C@H](C(=O)N[C@@H](Cc1ccc(O)cc1)C(=O)N[C@@H](CO)C(=O)O)CSSC[C@H](NC(=O)[C@H](C(C)C)NC(=O)[C@@H]1CCCN1C(=O)[C@H](Cc1c[nH]c4ccccc14)NC3=O)C(=O)N[C@@H](CCC(=O)O)C(=O)N[C@@H](CCCCN)C(=O)N[C@@H](CC(C)C)C(=O)N[C@@H](Cc1ccccc1)C(=O)NCC(=O)N[C@@H]([C@@H](C)O)C(=O)N[C@@H](Cc1ccc(O)cc1)C(=O)N[C@@H](CCCNC(=N)N)C(=O)NCC(=O)N[C@@H](CCCCN)C(=O)N2 [BmKcug1a-P1-D4] (H-SCSASSQCWPVCEKLFGTYRGKCMNSKCRCYS-OH; disulfide 2-23, 8-28, 12-30 (inferred); N-terminus and C-terminus assumed)
IC50 (hKv1.3 channel; HEK293T): 2210 ± 280 nM

CSCC[C@@H]1NC(=O)[C@@H]2CSSC[C@H](NC(=O)[C@H](CO)NC(=O)[C@@H](NC(=O)[C@H](CC(N)=O)NC(=O)[C@@H](NC(=O)[C@@H](N)Cc3ccccc3)[C@@H](C)O)C(C)C)C(=O)N[C@@H](CO)C(=O)N[C@@H](C)C(=O)N[C@@H](CO)C(=O)N[C@@H](CO)C(=O)N[C@@H](CCC(N)=O)C(=O)N[C@H]3CSSC[C@H](NC(=O)[C@H](CCCCN)NC(=O)[C@H](CO)NC(=O)[C@H](CC(N)=O)NC1=O)C(=O)N[C@@H](CCCNC(=N)N)C(=O)N[C@H](C(=O)N[C@@H](Cc1ccc(O)cc1)C(=O)N[C@@H](CO)C(=O)O)CSSC[C@H](NC(=O)[C@H](C(C)C)NC(=O)[C@@H]1CCCN1C(=O)[C@H](Cc1c[nH]c4ccccc14)NC3=O)C(=O)N[C@@H](CCC(=O)O)C(=O)N[C@@H](CCCCN)C(=O)N[C@@H](CC(C)C)C(=O)N[C@@H](Cc1ccccc1)C(=O)NCC(=O)N[C@@H]([C@@H](C)O)C(=O)N[C@@H](Cc1ccc(O)cc1)C(=O)N[C@@H](CCCNC(=N)N)C(=O)NCC(=O)N[C@@H](CCCCN)C(=O)N2 [BmKcug1a-P1] (H-FTNVSCSASSQCWPVCEKLFGTYRGKCMNSKCRCYS-OH; disulfide 6-27, 12-32, 16-34)
inhibition of potassium currents mediated by hKv3.2 (hKv3.2 channel): 6.5 ± 0.9%
inhibition of hKv1.3 channel current (hKv1.3 channel; 40 nM peptide): 7.0 ± 0.5%
inhibition of hKv1.3 channel current (hKv1.3 channel; 200 nM peptide): 18.3 ± 2.1%
inhibition of potassium currents mediated by hKv1.3 (hKv1.3 channel; [1]): 47.3 ± 3.5%
inhibition of hKv1.3 channel current (hKv1.3 channel; 5 μM peptide): 65.2 ± 2.3%
inhibition of hKv1.3 channel current (hKv1.3 channel; 25 μM peptide): 82.0 ± 0.6%
IC50 (hKv1.3 channel; HEK293T): 1540 ± 280 nM
inhibition of potassium currents mediated by hKv1.1 (hKv1.1 channel): 1.9 ± 0.3%
inhibition of hKv1.2 channel current (hKv1.2 channel; 200 nM peptide, SEM): 12.6 ± 3.3%
inhibition of potassium currents mediated by hKv1.2 (hKv1.2 channel; [1]): 37.7 ± 7.4%
inhibition of hKv1.2 channel current (hKv1.2 channel; 5 μM peptide, SEM): 64.1 ± 4.5%
inhibition of hKv1.2 channel current (hKv1.2 channel; 25 μM peptide, SEM): 83.9 ± 2.2%
IC50 (hKv1.2 channel; HEK293T, dose-response fitted with modified Hill equation, SEM): 2120 ± 270 nM
inhibition of potassium currents mediated by hKv1.6 (hKv1.6 channel): 3.8 ± 1.6%
